Patent US7022333B2 (priority 2001, dated 2006)

Tested on: S. aureus FRI-1187
Format: cell-based, Staphylococcus aureus

Structure (SMILES): OCCc1ccccc1 [Phenylethyl alcohol, phenylethyl alcohol]
- amount of exotoxin production from the FRI-1187 culture: significantly reduced
- ELISA: TSST-1 ng/OD unit (0.5% test compound, S. aureus FRI-1187, Example 5): none
